# From patent US20150284385A1, “CERTAIN DIPEPTIDYL PEPTIDASE INHIBITORS” (SHANGHAI FOCHON PHARMACEUTICAL CO LTD, priority 2012, published 2015)
# Where two headings read alike, the source gives them in different places.
# Legend:
# Recombinant human DPP-IV = Recombinant human DPP-IV (Homo sapiens, UniProt P27487); experiment: DPP-IV assay in vitro (H-Ala-Pro-AFC fluorescence); assay type: biochemical; details: 30 min pre-incubation, H-Ala-Pro-AFC 50 μM
# Procedure: DPP-IV Assay Solutions of test compounds in varying concentrations (10^−5 mol/L, 10^−6 mol/L, 10^−7 mol/L, 10^−8 mol/L, 10^−9 mol/L, 10^−10 mol/L, 10^−11 mol/L, and 10^−12 mol/L) were prepared in dimethyl sulfoxide (DMSO) and then diluted into assay buffer comprising: 10 mM Tris-HCl pH 8.0, 0.2 M NaCl, and 0.1% BSA. Recombinant human DPP-IV (7.8 ng/ml final concentration) was added to the dilutions and pre-incubated for 30 mins at room temperature before the reaction was initiated with H-Ala-Pro-AFC (50 μM final concentration). The total volume of the reaction mixture was 100 μl.
# Inhibition constants (IC50) were calculated by GraphPad Prism.
# DPP-4 = molecular target: T1, DPP-4 (Mus musculus, UniProt P28843); experiment: Plasma DPP-4 activity in mice after oral dosing; assay type: in vivo, ICR mice; details: read-out: DPP-4 Relative activity %; for activity at 1 mg/kg: Table 4 Test 2, mice plasma, oral 1 mg/kg; for activity at 3 mg/kg: mice plasma, oral 3 mg/kg
# T1 construct: Blood sample was processed to obtain plasma; from tissue; host or cells: plasma of male ICR mice
# Procedure: Some of the exemplary compounds were tested in mice to assess inhibition of DPP-4 activity via plasma DPP-4 activity. Male ICR mice (25-30 g) were used for this study. All the mice were fasted at least 3 hours before study. Mice (n=6/group) received vehicle or at least one of the exemplary compounds by oral gavage. The dosing solutions were 0.15 mg/ml for the 3 mg/kg. Dosing volume was 20 mL/kg of body weight for all doses. The vehicle was distilled water. […] Blood sample was processed to obtain plasma (2000 g, 5 min, 4° C.) within 15 min after sampling.
# Plasma was collected and tested by fluoremetry. Before the testing, 80 mM MgCl2 buffer was added into the 5 uL serum samples and pre-incubation for 5 minutes at room temperature, then […] of 0.1 mM substrate Gly-Pro-AMC and 20 μL of buffer were added into them. The fluorescence of the mixture was measured every 3 minutes after mixing (excitation at 380 nm; emission at 460 nm). After 6 times of measurements, a time-fluorescence cure was obtained. The slope of the curve would be the activity of DPP-4 in serum. The DPP-4 activity before administration was 100%. The relative activity of DPP-4 in serum was calculated using the formula below:
# Relative DPP-4activity=DPP-4activity after dosing/DPP-4activity before dosing×100%.
# T1 sequence (P28843 37-760 limits assumed): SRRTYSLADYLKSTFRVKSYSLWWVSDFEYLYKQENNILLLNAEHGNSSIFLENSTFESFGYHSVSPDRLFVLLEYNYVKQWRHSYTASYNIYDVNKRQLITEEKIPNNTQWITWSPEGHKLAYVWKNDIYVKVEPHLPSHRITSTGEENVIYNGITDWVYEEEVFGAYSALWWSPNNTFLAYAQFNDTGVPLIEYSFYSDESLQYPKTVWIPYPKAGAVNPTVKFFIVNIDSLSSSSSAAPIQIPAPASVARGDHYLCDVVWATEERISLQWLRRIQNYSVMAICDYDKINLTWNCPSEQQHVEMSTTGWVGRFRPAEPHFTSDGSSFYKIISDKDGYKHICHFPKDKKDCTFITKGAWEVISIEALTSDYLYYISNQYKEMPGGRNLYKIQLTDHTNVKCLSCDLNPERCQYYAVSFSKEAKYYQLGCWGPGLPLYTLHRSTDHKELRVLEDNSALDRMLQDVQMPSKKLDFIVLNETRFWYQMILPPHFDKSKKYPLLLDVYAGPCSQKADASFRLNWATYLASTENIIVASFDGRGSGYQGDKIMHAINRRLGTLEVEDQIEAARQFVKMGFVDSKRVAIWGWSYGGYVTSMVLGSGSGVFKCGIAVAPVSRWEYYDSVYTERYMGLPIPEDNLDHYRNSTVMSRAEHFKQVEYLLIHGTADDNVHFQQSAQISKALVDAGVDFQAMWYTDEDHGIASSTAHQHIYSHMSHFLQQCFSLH
# Chain of Recombinant human DPP-IV (P27487 whole entry): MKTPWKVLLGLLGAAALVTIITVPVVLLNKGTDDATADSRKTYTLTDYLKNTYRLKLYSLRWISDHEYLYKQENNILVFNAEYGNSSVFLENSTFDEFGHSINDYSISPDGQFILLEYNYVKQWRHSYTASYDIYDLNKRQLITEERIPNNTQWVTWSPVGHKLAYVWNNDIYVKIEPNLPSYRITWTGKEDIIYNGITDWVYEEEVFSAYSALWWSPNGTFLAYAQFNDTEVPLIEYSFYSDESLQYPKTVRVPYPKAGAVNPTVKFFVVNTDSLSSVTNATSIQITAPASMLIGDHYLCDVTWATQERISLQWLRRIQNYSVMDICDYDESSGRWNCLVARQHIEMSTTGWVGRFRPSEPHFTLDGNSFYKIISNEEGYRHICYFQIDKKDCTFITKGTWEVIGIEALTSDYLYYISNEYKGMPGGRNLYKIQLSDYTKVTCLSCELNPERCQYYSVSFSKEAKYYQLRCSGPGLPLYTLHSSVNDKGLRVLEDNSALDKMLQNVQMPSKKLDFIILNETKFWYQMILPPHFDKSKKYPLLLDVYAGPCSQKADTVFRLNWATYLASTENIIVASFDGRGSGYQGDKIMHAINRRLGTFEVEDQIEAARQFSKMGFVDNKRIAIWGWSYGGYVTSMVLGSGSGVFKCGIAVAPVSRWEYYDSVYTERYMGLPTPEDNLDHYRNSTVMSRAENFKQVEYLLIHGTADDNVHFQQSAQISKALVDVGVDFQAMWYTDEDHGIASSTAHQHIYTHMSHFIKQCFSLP
Compound,IC50 (Recombinant human DPP-IV),activity at 1 mg/kg (DPP-4; 1 h after dosing),activity at 1 mg/kg (DPP-4; 2 h after dosing),activity at 1 mg/kg (DPP-4; 4 h after dosing),activity at 1 mg/kg (DPP-4; 6 h after dosing),activity at 1 mg/kg (DPP-4; 9 h after dosing),activity at 1 mg/kg (DPP-4; 24 h after dosing),activity at 3 mg/kg (DPP-4; 1 h after dosing),activity at 3 mg/kg (DPP-4; 2 h after dosing),activity at 3 mg/kg (DPP-4; 3 h after dosing),activity at 3 mg/kg (DPP-4; 5 h after dosing),activity at 1 mg/kg (DPP-4; 12 h after dosing)
"Cc1nnc(-c2ccn3c4c(nc3c2)C[C@H](c2cc(F)c(F)cc2F)[C@@H](N)C4)o1 [Example 2, (7R,8S)-3-(5-Methyl-1,3,4-oxadiazol-2-yl)-7-(2,4,5-trifluorophenyl)-6,7,8,9-tetrahydrobenzo[4,5]imidazo[1,2-a]pyridin-8-amine]",1.2 nM,9.4 ± 1.8%,11.6 ± 2%,7.7 ± 2.1%,9.6 ± 1.3%,7.8 ± 2.7%,16.4 ± 3.7%,17 ± 3.3%,22.6 ± 3.1%,22.6 ± 1.1%,25.9 ± 3.8%,–
"N[C@H]1Cc2c(nc3cc(-c4ncon4)ccn23)C[C@@H]1c1cc(F)c(F)cc1F [Example 3, (7R,8S)-3-(1,2,4-Oxadiazol-3-yl)-7-(2,4,5-trifluorophenyl)-6,7,8,9-tetrahydrobenzo[4,5]imidazo[1,2-a]pyridine-8-amine]",1.7 nM,15 ± 0.6%,13.6 ± 1.7%,8.6 ± 1.1%,13.8 ± 2.4%,11.8 ± 2.4%,38.4 ± 4.3%,16 ± 2.3%,15 ± 3%,20 ± 1.8%,26.5 ± 3.5%,15.6 ± 2.4%
"Cc1nc(-c2ccn3c4c(nc3c2)C[C@H](c2cc(F)c(F)cc2F)[C@@H](N)C4)no1 [Example 4, (7R,8S)-3-(5-Methyl-1,2,4-oxadiazol-3-yl)-7-(2,4,5-trifluorophenyl)-6,7,8,9-tetrahydrobenzo[4,5]imidazo[1,2-a]pyridin-8-amine]",1.9 nM,11.5 ± 1.8%,9 ± 1.3%,10.2 ± 1.8%,10.4 ± 1.8%,11.6 ± 1.6%,–,24.4 ± 2.8%,21.7 ± 1.7%,20.4 ± 2%,28.3 ± 2.3%,–
